Assay results as given in ChEMBL document CHEMBL5096239, “Two Binding Sites of SARS-CoV-2 Macrodomain 3 Probed by Oxaprozin and Meclomen” (J Med Chem, 2022).
Active and inactive are the calls of the source. The rule behind the calls is not given here.

Key:
[1] = molecular target: T1, Replicase polyprotein 1ab (Severe acute respiratory syndrome coronavirus 2, UniProt P0DTD1); assay: Displacement of carboxyfluorescein-labelled p53-(dG)14 from SARS-CoV-2 Mac3 by fluorescence polarization analysis
[2] = molecular target: T1, Replicase polyprotein 1ab; assay: Binding affinity to 15N-labelled His6-tagged SARS-CoV-2 Mac3 (551 to 675 residues) expressed in Escherichia coli Rosetta assessed as chemical shift perturbations by NMR HSQC spectral analysis
[3] = molecular target: Replicase polyprotein 1a (Severe acute respiratory syndrome-related coronavirus, UniProt P0C6U8); assay: Binding affinity to 15N-labelled His6-tagged SARS-CoV Mac3 (527 to 652 residue) expressed in Escherichia coli Rosetta assessed as chemical shift perturbations by NMR HSQC spectral analysis
[4] = molecular target: Replicase polyprotein 1a (Severe acute respiratory syndrome-related coronavirus) (UniProt P0C6U8); assay: Binding affinity to 15N-labelled His6-tagged SARS-CoV Mac3 (527 to 652 residue) expressed in Escherichia coli Rosetta assessed as chemical shift perturbations at binding site 1 (1556, T559, M606, T612, S636, and S637 residues) by NMR HSQC spectral analysis
[5] = molecular target: T1, Replicase polyprotein 1ab; assay: Displacement of carboxyfluorescein-labelled bbc3-(dG)14 from SARS-CoV-2 Mac3 by fluorescence polarization analysis
[6] = molecular target: Replicase polyprotein 1ab (Severe acute respiratory syndrome coronavirus 2) (UniProt P0DTD1); assay: Binding affinity to 15N-labelled His6-tagged SARS-CoV-2 Mac3 (551 to 675 residues) expressed in Escherichia coli Rosetta assessed as chemical shift perturbations at binding site I (M630, Y634, V635, T636, and S660 residues) at ligand to protein molar ratio of 4:1 by NMR HSQC spectral analysis
[7] = molecular target: Replicase polyprotein 1a (Severe acute respiratory syndrome-related coronavirus) (UniProt P0C6U8); assay: Binding affinity to 15N-labelled His6-tagged SARS-CoV Mac3 (527 to 652 residue) expressed in Escherichia coli Rosetta assessed as chemical shift perturbations at binding site 1 (C550, V553, 1556, and M606 residues) by NMR HSQC spectral analysis
[8] = molecular target: Replicase polyprotein 1ab (Severe acute respiratory syndrome coronavirus 2) (UniProt P0DTD1); assay: Binding affinity to 15N-labelled His6-tagged SARS-CoV-2 Mac3 (551 to 675 residues) expressed in Escherichia coli Rosetta assessed as chemical shift perturbations at binding site II (Q594, E595, S609, and M630 residues) at ligand to protein molar ratio of 4:1 by NMR HSQC spectral analysis

SMILES | Ki [1] | Kd [2] | Kd [3] | Activity [4] | Ki [5] | Activity [6] | Activity [7] | Activity [8]
Cc1ccc(Cl)c(Nc2ccccc2C(=O)O)c1Cl [MECLOFENAMIC ACID] | 200 µM | 900 µM | 220 µM | Active | 50 µM | Active | – | –
O=C(O)CCc1nc(-c2ccccc2)c(-c2ccccc2)o1 [OXAPROZIN] | 900 µM | 1200 µM | 1000 µM | – | 400 µM | – | Active | Active
